Source: ChEMBL document CHEMBL1201862, “PubChem BioAssay data set” (2004)
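Cultured in 96-well plates, cells were exposed to test compound for 48 hours across five concentrations. GI50 marks 50% less growth.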 The source made the active and inactive calls. Rule as the data show it: active = GI50 up to about 1.1 µM and inactive = higher.

Key:
Experiment in all cases: NCI tumour cell line growth inhibition, 48 h
A549 = system: A549
CAKI-1 = system: CAKI-1
CCRF-CEM = system: CCRF-CEM
DU-145 = system: DU-145
HOP-92 = system: HOP-92
KM12 = system: KM12
MCF7 = system: MCF7
MDA-MB-435 = system: MDA-MB-435
MDA-N = system: MDA-N
Malme-3M = system: Malme-3M
NCI-H226 = system: NCI-H226
OVCAR-3 = system: OVCAR-3
OVCAR-4 = system: OVCAR-4
SF-268 = system: SF-268
SK-MEL-28 = system: SK-MEL-28
SN12C = system: SN12C
SNB-75 = system: SNB-75
SR = system: SR
UACC-62 = system: UACC-62
UO-31 = system: UO-31

Measured: GI50

COc1ccc(Oc2ccc3cc4c(cc3c2O)OCO4)c2cc(C)oc12
inactive: A549 30.1 µM | CAKI-1 30.1 µM | CCRF-CEM 21.7 µM | DU-145 39.7 µM | HOP-92 25.2 µM | KM12 28.3 µM | MCF7 34 µM | MDA-MB-435 22.3 µM | MDA-N 29.6 µM | Malme-3M 24.2 µM | NCI-H226 25.4 µM | OVCAR-3 28.8 µM | OVCAR-4 22.4 µM | SF-268 36 µM | SK-MEL-28 47.5 µM | SN12C 29.6 µM | SNB-75 33.4 µM | SR 19.3 µM | UACC-62 35.6 µM | UO-31 29.1 µM
